Series [1] has as its system chorioallantoic membrane (CAM) of 10-day old chicken embryos. Kind of series: CAM assay (growth factor-induced angiogenesis on chorioallantoic membrane). The format is in vivo. The note with it: for IC50: Gallus gallus, read-out: CAM angiogenesis Inhibition, apparent IC50. As to the method: Human VEGF-165 and BFGF (200 ng each) were added to saturation to a microbial testing disk and placed onto the chorioallantoic membrane (CAM) of 10-day old chicken embryos. Eight hours after the growth factor treatment, unknown compounds (100 μg) were added to the same microbial testing disk. Growth factors and embryos were allowed to incubate an additional 40 hours. CAMS were removed, paraformaldehyde (4% in PBS) fixed, placed onto Petri dishes, and digital images taken at 7.5× using a dissecting microscope. A 1×1-cm grid was then added to the digital CAM images and the number of vessels within each grid counted as a measure of vascularity. […] Data were then graphed (FIG. 1) as a percent of growth factor-induced blood vessel amounts.

The target of a further series is Flk-1 (Homo sapiens, UniProt P35968). In words: Phospho-Flk1 phosphotyrosine ELISA (cytoblot) on whole U251 glioblastoma cells; Flk1 kinase inhibition. The format is cell-based. On the technique in general: ELISA stands for enzyme-linked immunosorbent assay.
The nature of the next series: U251 cytotoxicity. The series is classed as cell-based. The note with it: human, U251 cells; Table 4; read-out: U251 cytotoxicity Inhibition, apparent IC50.
For the next series, the target named is Flt-1 (Homo sapiens, UniProt P17948). In words: Flt-1 kinase inhibition. The format is cell-based. The note with it: Table 4; read-out: Flt-1 kinase Inhibition, apparent IC50.
Setting [2] is: Table 2, read-out: FIK1 Kinase Inhibition IC50.
Setting [3] is: Table 4, U251 cells overexpress Flk1, read-out: Flk-1 kinase Inhibition, apparent IC50.

Where two headings read alike, the source gives them in different places.

Sequence of Flk-1 (P35968 20-1356): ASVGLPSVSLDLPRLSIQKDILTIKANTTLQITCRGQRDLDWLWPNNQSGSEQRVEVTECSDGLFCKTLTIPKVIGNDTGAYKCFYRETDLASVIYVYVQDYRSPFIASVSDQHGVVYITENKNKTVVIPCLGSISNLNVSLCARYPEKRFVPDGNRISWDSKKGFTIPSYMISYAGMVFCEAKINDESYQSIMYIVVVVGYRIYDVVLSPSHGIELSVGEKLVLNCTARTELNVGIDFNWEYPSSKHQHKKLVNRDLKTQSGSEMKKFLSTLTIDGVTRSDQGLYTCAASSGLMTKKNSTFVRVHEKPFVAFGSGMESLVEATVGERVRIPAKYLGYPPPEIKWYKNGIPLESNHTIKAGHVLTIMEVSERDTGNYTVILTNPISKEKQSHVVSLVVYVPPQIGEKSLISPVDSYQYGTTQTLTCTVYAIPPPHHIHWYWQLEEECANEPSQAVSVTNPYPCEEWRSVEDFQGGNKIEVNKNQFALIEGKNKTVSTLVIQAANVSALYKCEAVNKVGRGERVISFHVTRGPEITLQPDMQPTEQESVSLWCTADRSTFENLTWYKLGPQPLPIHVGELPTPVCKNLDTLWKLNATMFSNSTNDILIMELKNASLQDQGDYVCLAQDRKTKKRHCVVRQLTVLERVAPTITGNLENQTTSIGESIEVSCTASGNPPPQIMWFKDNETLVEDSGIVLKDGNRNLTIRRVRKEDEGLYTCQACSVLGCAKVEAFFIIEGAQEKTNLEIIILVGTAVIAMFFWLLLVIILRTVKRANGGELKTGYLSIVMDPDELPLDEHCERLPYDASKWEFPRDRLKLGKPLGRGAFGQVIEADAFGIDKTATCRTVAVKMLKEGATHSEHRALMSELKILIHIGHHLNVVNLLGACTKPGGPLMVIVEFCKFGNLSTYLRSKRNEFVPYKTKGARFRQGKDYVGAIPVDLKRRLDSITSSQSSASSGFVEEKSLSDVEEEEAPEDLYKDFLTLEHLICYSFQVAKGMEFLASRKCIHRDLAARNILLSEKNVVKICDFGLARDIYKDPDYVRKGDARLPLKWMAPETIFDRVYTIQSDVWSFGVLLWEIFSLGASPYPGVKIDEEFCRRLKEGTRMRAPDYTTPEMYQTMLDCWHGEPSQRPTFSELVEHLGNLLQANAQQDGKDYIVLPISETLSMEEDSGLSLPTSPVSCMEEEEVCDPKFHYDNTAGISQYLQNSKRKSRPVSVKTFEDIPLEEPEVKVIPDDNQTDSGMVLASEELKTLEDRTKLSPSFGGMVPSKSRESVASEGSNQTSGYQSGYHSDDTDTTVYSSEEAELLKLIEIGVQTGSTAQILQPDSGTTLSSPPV
Sequence of Flt-1 (P17948 27-1338, species assumed): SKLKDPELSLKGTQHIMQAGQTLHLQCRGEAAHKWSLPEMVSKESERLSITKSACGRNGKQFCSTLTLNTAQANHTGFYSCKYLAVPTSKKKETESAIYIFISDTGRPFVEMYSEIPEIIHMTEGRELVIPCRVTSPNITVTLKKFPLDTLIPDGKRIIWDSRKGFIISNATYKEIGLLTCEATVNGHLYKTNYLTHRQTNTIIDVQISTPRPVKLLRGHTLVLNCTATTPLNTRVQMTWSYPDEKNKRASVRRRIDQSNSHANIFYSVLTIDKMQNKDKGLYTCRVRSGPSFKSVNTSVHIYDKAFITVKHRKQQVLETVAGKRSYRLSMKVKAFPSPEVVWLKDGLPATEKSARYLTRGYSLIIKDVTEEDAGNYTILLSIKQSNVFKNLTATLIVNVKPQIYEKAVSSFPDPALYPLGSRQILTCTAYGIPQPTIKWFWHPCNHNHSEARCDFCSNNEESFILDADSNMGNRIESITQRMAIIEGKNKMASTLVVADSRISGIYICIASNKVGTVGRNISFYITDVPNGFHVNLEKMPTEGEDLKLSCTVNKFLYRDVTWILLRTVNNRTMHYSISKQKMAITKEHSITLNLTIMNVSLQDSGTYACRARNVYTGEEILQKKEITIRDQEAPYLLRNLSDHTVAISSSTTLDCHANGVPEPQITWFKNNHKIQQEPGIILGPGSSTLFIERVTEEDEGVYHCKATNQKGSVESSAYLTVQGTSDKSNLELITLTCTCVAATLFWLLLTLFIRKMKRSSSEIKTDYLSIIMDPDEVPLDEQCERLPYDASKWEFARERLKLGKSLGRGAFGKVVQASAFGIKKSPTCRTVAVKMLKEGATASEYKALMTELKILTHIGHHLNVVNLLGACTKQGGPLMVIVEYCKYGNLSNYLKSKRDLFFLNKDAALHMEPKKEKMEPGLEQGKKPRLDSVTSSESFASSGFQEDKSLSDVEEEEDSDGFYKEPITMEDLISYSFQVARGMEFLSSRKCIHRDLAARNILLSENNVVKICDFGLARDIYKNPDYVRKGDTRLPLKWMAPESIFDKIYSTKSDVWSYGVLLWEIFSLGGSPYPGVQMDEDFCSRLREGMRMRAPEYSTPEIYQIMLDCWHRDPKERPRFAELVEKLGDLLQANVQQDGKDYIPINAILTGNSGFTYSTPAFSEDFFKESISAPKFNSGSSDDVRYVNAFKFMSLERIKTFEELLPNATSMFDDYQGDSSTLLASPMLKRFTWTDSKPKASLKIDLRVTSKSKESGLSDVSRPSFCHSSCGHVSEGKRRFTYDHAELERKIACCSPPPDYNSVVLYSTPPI
Description for Flk-1: Reactions were stopped by the aspiration of media and the addition of phosphate buffered saline (PBS) containing 0.05% triton X-100, protease inhibitor cocktail and phosphatase inhibitor cocktail 2 (Sigma Chemical company) for 10 minutes on ice. Cells were then fixed at 60° C. for 30 minutes and then cold methanol added to the cells for five minutes to further permeabilize them for antibody penetration. Cells were blocked for one hour with 1% bovine serum albumin in PBS, washed twice in PBS, and then anti-phosphotyrosine-HRP conjugate (Oncogene Research) added at 1:250 dilution overnight. The antibody was then removed, the cells washed three times in PBS with 1% BSA and once with PBS, and luminol-peroxide reagent added (Pierce Biochemical) for 5 minutes. […] Data are graphed as a percentage of growth factor (EGF, VEGF) treated controls.

For `COc1ccc(OC)c(Cc2cc3c(Nc4cccc(Br)c4)nc(N)nc3[nH]2)c1` [YJ/AG 178], the half-inhibitory concentration (IC50) in series [1] came out at 1300 nM; at Flk-1 (setting [2]), 600 nM; on Flk-1 (setting [3]), 600 nM.

Consider `Nc1nc(Nc2cccc(Br)c2)c2cc(Cc3ccccc3)[nH]c2n1` [YJ/AG 156], for which the IC50 in the series “U251 cytotoxicity” was 3400 nM; in series [1], under 100 nM.

As for `Nc1nc(Nc2cccc(Br)c2)c2cc(Cc3ccc4ccccc4c3)[nH]c2n1` [YJ/AG 146], the results for the IC50 (in series [1]; on Flk-1 (setting [2]); on Flk-1 (setting [3])) were 8900 nM, over 50000 nM and over 50000 nM, respectively.

`Nc1nc(Nc2cccc(Br)c2)c2cc(Cc3ccc(-c4ccccc4)cc3)[nH]c2n1` [YJ/AG 154]: the IC50 in series [1] is under 100 nM.

Consider `Nc1nc(Nc2cccc(Br)c2)c2cc(Cc3ccc(Cl)cc3Cl)[nH]c2n1` [YJ/AG 176], for which the half-inhibitory concentration (IC50) in series [1] stood at 10800 nM.

Turning to `COc1cc(Cc2cc3c(Nc4cccc(Br)c4)nc(N)nc3[nH]2)cc(OC)c1OC` [YJ/AG 177], the IC50 in series [1] is 400 nM.

Take `Cc1cc(C)c(/C=C2\C(=O)Nc3ccccc32)[nH]1` [SU5416, reference compound]: the results for the 50% inhibitory concentration (IC50) (in “U251 cytotoxicity”; in series [1]) were 200 nM and under 100 nM, respectively.

With `Nc1nc(Nc2cccc(Br)c2)c2cc(Cc3cccc4ccccc34)[nH]c2n1` [YJ/AG 158], in series [1], the half-inhibitory concentration (IC50) was under 100 nM.

As to `Nc1nc(Nc2cccc(Br)c2)c2cc(Cc3ccccc3Cl)[nH]c2n1` [YJ/AG 145], the IC50 in series [1] turned out to be 1700 nM.

Regarding `Cc1ccccc1Cc1cc2c(Nc3cccc(Br)c3)nc(N)nc2[nH]1` [YJ/AG 168], the IC50 at Flt-1 was over 50000 nM; in “U251 cytotoxicity” it was 5000 nM; in series [1], 1200 nM; on Flk-1 (setting [2]) it was 300 nM.

For `Nc1nc(Nc2cccc(Br)c2)c2cc(Cc3ccc(Cl)c(Cl)c3)[nH]c2n1` [YJ/AG 148], in series [1], the IC50 was under 100 nM. The “Toxicity remark in CAM angiogenesis column” value in series [1] (Table 4, remark under the CAM value) is “(toxic)”.

In general, IC50 refers to the concentration that inhibits the measured activity by half.

The record behind these values is US6770652B2, “Multiple acting anti-angiogenic and cytotoxic compounds and methods for using the same” (Duquesne University of the Holy Ghost, priority 2001, dated 2004).
